Earlier results on two compounds are cited in patent US11013708B2, “Prevention of psychotic disorders and/or treatment of psychotic symptoms” (Orygen Youth Health Research Centre, priority 2008, dated 2021).

In series [1] the test system is first-episode psychosis patients. The settings on record: in vivo 1H-MRS.
In series [2] the test system is ultra-high-risk groups. The settings on record: risperidone and cognitive therapy for 6 months vs supportive counselling.

Consider `CC/C=C\C/C=C\C/C=C\C/C=C\C/C=C\CCCC(=O)O` [EPA, all cis (or all z) 5,8, 11, 14, 17-eicosapentanoic acid], for which, in series [1], the “glutathione in temporal lobes” value is “can increase glutathione”.
`Cc1nc2n(c(=O)c1CCN1CCC(c3noc4cc(F)ccc34)CC1)CCCC2` [risperidone]: the “efficacy of preventive intervention vs comparator” value in series [2] is “significantly more effective than supportive counselling at end of intervention, but not at 12-month follow-up”.
